In the METLIN SMRT retention time set (Domingo-Almenara et al. 2019):

Test: gradient 5% acetonitrile 3 min, to 50% in 2 min, to 85% in 15 min, held 3 min, 100 µL/min
Details: column: Zorbax Extend-C18 2.1 x 50 mm; eluents: water / acetonitrile, 0.1% formic acid
Procedure, shortened: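 In both positive and negative ionization mode, a quadrupole time-of-flight mass spectrometer coupled to HPLC analyzed pure standards run in mixtures of ~100 molecules. The Zorbax Extend-C18 column (2.1 × 50 mm, 1.8 μm) was operated at 100 μL/min with water and acetonitrile, each containing 0.1% formic acid. The dead volume was 40 μL and the dwell volume 900 μL. Retention time came from adduct peaks that were computationally picked and individually inspected by hand.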

RP-LC retention time [s] | Structure (SMILES)
625 | Cc1ccc(-n2ncc3c(NCCCN(C)C)ncnc32)cc1C
902 | Cc1ccc2[nH]cc(CCNC(=O)c3cc(-c4ccccn4)nc4ccccc34)c2c1
1190 | CCc1nc2cc(-c3noc(-c4ccc(Br)o4)n3)ccc2o1
853 | Cn1nc(CNC(=O)COc2ccc(Cl)cc2)c2ccccc21
994 | Cc1ccc(CNC(=O)N2CCCC2c2nc(-c3ccccc3)no2)cc1 (stereo not given)
775 | CCOCCCNC(=O)C1CCN(c2cc(Sc3cc(C)ccc3C)ncn2)CC1
952 | Cc1ccc(NC(=O)N2CCc3nc(-c4ccccc4)ncc3C2)c(C)c1
643 | CCOC(=O)CNC(=O)N1CCc2c(c(C(=O)N3CCCCC3)nn2C)C1
838 | Cc1cc(NC(=O)CCCSc2ccc(F)cc2)no1
1020 | CCCn1cc(C(=O)NCCCOC)c(S(=O)(=O)N2CCN(c3cccc(Cl)c3)CC2)n1
790 | CCc1noc(NC(C)=O)c1-c1ccc(OC)c(S(=O)(=O)N(C)c2ccc(C)cc2)c1
681 | Cc1cnc(C(=O)N2CCC(N3C(=O)C4(CCCC4)C3c3scnc3C)CC2)cn1 (stereo not given)
892 | Cn1cc(C(=O)NCc2cccc(Cl)c2)c(S(=O)(=O)N2CCSCC2)n1
512 | O=C(O)c1ccc(Cn2cnc3ccccc32)o1
622 | O=C(NCc1ccnc(N2CCCCCC2)c1)Nc1ccc2c(c1)OCO2
1380 | CCCOc1nc2ccccc2nc1N1CCCC(C(=O)N2CCN(c3ccccc3F)CC2)C1 (stereo not given)
732 | COCc1nn(CC2CC2)c2c1CN(C(=O)Cc1ccccc1)CC2
716 | O=C1CCCc2cc(S(=O)(=O)N3CCC(C(=O)N4CCCCCC4)CC3)ccc2N1
949 | O=C(NCC1CCN(C(=O)Oc2ccccc2)CC1)C1c2ccccc2Oc2ccccc21
976 | O=C(NC1CCCCC1)C1CCCN(c2nccn3nc(-c4ccccc4Cl)cc23)C1 (stereo not given)
636 | Cc1ccccc1NC(=O)N1CCC(N(CCC(C)C)C2CCOCC2)CC1
682 | CCc1cccc(NC(=O)Cn2c(N3CCCC3)nc(C)cc2=O)c1
960 | COCCn1cc2c3c(cccc31)CN(C(=O)c1cccc(Cl)c1)CC2

RP-LC retention time [s] | Structure (SMILES)
855 | CCn1c(N2CCC(C(=O)NC3CCCCCC3)CC2)cc(=O)n(C)c1=O
703 | Cc1nc(-c2ccncc2)nc2c1CC(=O)N2C1CCCC1
722 | CNC(=O)C1CN(C(=O)Cc2ccc(C)cc2)CC12CCCC2 (stereo not given)
1060 | Cc1c(-c2noc(-c3ccccc3)n2)nnn1Cc1ccccc1
745 | COc1ccccc1N1C(=O)N(c2ccc([N+](=O)[O-])cc2)C2CS(=O)(=O)CC21 (stereo not given)
860 | CC(C)c1cc(C(=O)Nc2ccc(F)cc2)nn1C1CCS(=O)(=O)C1 (stereo not given)
947 | Cc1ccc(CNC(=O)C2(C)CCCN(C(=O)Nc3ccc(C)cc3C)C2)cc1 (stereo not given)
799 | CC(C)CCNC(=O)C1Cn2cccc2C(=O)N1CC(C)C (stereo not given)
817 | O=C(c1ccccn1)N1CCCn2nc(-c3ccc(Cl)cc3)cc2C1
655 | O=C(c1ccc(C(F)(F)F)cc1)N1CCN(c2nc(CN3CCOCC3)cs2)CC1
718 | CCN(CC)c1ccc(-c2noc(CN3CCc4ccccc4C3)n2)cn1
820 | Cc1ccccc1CNC(=O)C1(C)CCCN(C(=O)NCC(C)C)C1 (stereo not given)
1020 | COC(=O)c1ccc(NC(=O)Cn2c(C)nc3c(sc4nc(-c5ccccc5)ccc43)c2=O)cc1
609 | c1cc(-c2nc(-c3ccc4c(c3)ncn4CCN3CCCCC3)no2)cs1
621 | CCN1CCN(C(=O)Nc2ccc(C(=O)OC)cc2)c2cccnc21
616 | CCOC(=O)c1noc2nc(C)nc(N3CCN(Cc4ccccc4)CC3)c12
906 | O=C(Nc1cccc(Cl)c1)c1cn(-c2cc(N3CCCC3)ncn2)cn1
563 | CC(C)c1nnc(C2CN(C)CC23CCN(Cc2cc(Cl)ccc2F)CC3)o1 (stereo not given)
549 | COc1cccc(CN2CCn3c(nnc3[C@@H]3C[C@@H](O)CN3C)C2)c1OC
572 | O=C(NCC1(N2CCOCC2)CCOC1)Nc1ccccc1 (stereo not given)
749 | CC(C)[C@H](NC(=O)CNC(=O)OC(C)(C)C)C(=O)N[C@H](C=O)C(C)C
995 | CCCS(=O)(=O)N1CC(c2nc(CCOc3cccc(C)c3)no2)C1
749 | CCC(=O)N1c2ccccc2NC2=C(C(=O)CC(C)(C)C2)C1c1ccc(C(=O)OC)cc1 (stereo not given)

RP-LC retention time [s] | Structure (SMILES)
699 | CSc1ccccc1NC(=O)c1coc(NC(=O)c2ccco2)n1
815 | Cc1ccc(CNC(=O)CCCN2C(=O)CCn3nc(-c4cn(C)c5ccccc45)cc32)o1
1100 | COc1ccc(C2Cn3nnc(-c4nc(-c5ccccc5)no4)c3CO2)cc1 (stereo not given)
565 | CCCN1CCN(c2ncc3c(n2)CCN(Cc2ccccc2OCC)C3)CC1
776 | CCn1ccc2c(cc(C(=O)Nc3ccc(F)cc3Cl)n2C)c1=O
908 | COc1ccc(OC)c(NC(=O)Cn2c(=O)n(-c3ccc(C)cc3)c(=O)c3c2cc(C)n3C)c1
726 | Cc1cc2c(N3CCCC(C(=O)N4CCN(c5ccc(F)cc5)CC4)C3)nccc2s1 (stereo not given)
702 | Cc1cc2[nH]c(C(=O)Nc3cc(F)ccc3F)c(CN3CCCC3)c2s1
1100 | O=S(=O)(NCc1nc(-c2ccc(-c3csc(C4CC4)n3)cc2)no1)c1ccccc1
603 | Cn1cc(-c2cc3n(n2)CCC(=O)N3CC(=O)NCCCN2CCOCC2)c2ccccc21
745 | COc1cccc(C(=O)NCCN2CCN(c3ccc(Cl)cc3)CC2)c1
648 | Cc1ccc2[nH]c(=O)nc(-c3ccccc3)c2c1
1120 | Cc1nc2c(sc3nc(-c4ccccc4)ccc32)c(=O)n1CC(=O)Nc1cccc(Cl)c1
688 | C=CCN1CC(c2nc3ccccc3n2Cc2c(F)cccc2Cl)CC1=O (stereo not given)
907 | COc1ccccc1CNS(=O)(=O)c1ccc2c(c1)C(=O)N(C)c1ncccc1O2
666 | COCCC(=O)N1CCN(c2ncccc2-c2nnc(C(C)C)o2)CC1
961 | O=C(NCc1ccccc1F)c1sc2ncccc2c1-n1cccc1
633 | O=C(NCc1ccc(Br)cc1)c1cn2c(n1)CCCC2
661 | Cc1ncsc1C1N(C2CCN(C(=O)C3CCC3)CC2)C(=O)C12CCCC2 (stereo not given)
670 | COc1cccc(CNC(=O)Nc2cccc(-c3ccc(N4CCOCC4)nn3)c2)c1
715 | CNC(=O)C1Cc2ccccc2N1C(=O)c1ccccc1SC(F)F (stereo not given)
982 | Cc1cccc(-c2nnc(-c3cccc(S(=O)(=O)N(C)C)c3)o2)c1
830 | O=C(COc1ccc(Cl)cc1Cl)N(Cc1ccccn1)Cc1ccco1

RP-LC retention time [s] | Structure (SMILES)
852 | CCC(C)NC(=O)Cn1cccc(-c2nc(-c3ccc(Cl)cc3)no2)c1=O (stereo not given)
675 | COc1ccc(NC(=O)C2CC(=O)N(c3ccc4c(c3)CCN4C(C)=O)C2)c(OC)c1 (stereo not given)
773 | CCCN(CC1CCOC1)C(=O)c1ccc(F)cc1Cl (stereo not given)
841 | CCNC(=O)c1cc(N2CCCC2)nc2ccccc12
994 | CCCn1nnc2cc(-c3noc(C4CC(=O)N(c5cccc(Cl)c5)C4)n3)ccc21 (stereo not given)
1190 | CCn1c(=O)c(C)nc2cc(-c3noc(-c4ccccc4C)n3)ccc21
1160 | CCc1ccc(N2CC(c3noc(-c4ccccc4C)n3)CC2=O)cc1 (stereo not given)
892 | Cc1cc(N2C=C(C(=O)N3CCOCC3)S(=O)(=O)c3ccc(F)cc32)ccc1Br
715 | CCOC(=O)N1CCN(C(=O)C2CCCN(c3ccc(-c4ccc(C)c(C)c4)nn3)C2)CC1 (stereo not given)
961 | Cc1noc(C)c1-c1ccc(S(=O)(=O)N2CCCCC2)cc1
876 | Cc1oc(-c2ccc(C(=O)NCC3COCCO3)cc2)nc1CN1CCc2ccccc21 (stereo not given)
886 | O=C(Cn1ccc2ccc(N3CCOCC3)nc21)NCc1ccccc1Br
535 | CNC(=O)[C@@H]1CN(C(=O)c2ccn(C)n2)C[C@H]1COC
784 | Cc1cc(C(=O)NCC(C)C)c2cc(Cl)ccc2n1
715 | COc1ccccc1-c1nc2cnccn2c1NCCC(=O)NC1CCCCCC1
567 | Cc1cc(C(=O)NCCN2CCCCC2)c2cc(Br)ccc2n1
552 | O=C(c1ccc(=O)[nH]n1)N1CCN(S(=O)(=O)C2CC2)CC1
761 | O=C1CCSc2ccc(S(=O)(=O)N3CCC(C(=O)NCc4ccccc4)CC3)cc2N1
931 | CCOc1cccc2cc(C(=O)Nc3ccccc3S(C)(=O)=O)oc12
1080 | Cn1cccc1C(=O)C(=O)Nc1ccc(Cl)cc1F
902 | COc1cccc2c1[C@@H]1CN(CCCCN3C(=O)NC4C(SC5NCC(c6ccccc6)NC54)C3=O)C[C@@H]1CO2 (stereo not given in full)
